From US11186577B2, “Vasopressin receptor antagonists and products and methods related thereto” (BlackThorn Therapeutics, Inc., priority 2017, dated 2021)

Tests used:
MDR1 (P-gp) = assay: in vitro; details: dog, MDCK-MDR1
[1] = biological target: human Arginine Vasopressin Receptor V2 (AVPR2) (Homo sapiens (Human), UniProt P30518); assay: Vasopressin V2 receptor antagonist assay (cAMP TR-FRET, 1321N1 cells); type: cell-based
Protocol: The purpose of the assay was to determine the inhibitory effect of synthesized compounds on the Vasopressin receptor 2. […] Arginine Vasopressin (AVP) evokes an increase in intracellular cAMP in these cells which is measured in a TR-FRET assay using a Europium cAMP tracer and ULight labelled antibody reagents contained in a LANCE Ultra cAMP kit (Perkin Elmer #TRF0263). […] Test compounds were assessed for their ability to affect the magnitude of the response to AVP, with antagonists showing a concentration-dependent decrease in the AVP-mediated reduction in TR-FRET signal.
cAMPZen V2 assay ready cells were thawed at 37° C. and resuspended directly from frozen in 9 ml growth medium consisting of DMEM supplemented with 10% v/v fetal bovine serum, 1× non-essential amino acids, and 1 mM sodium pyruvate. Cells were spun at 1000 rpm for 3 minutes and the supernatant was carefully removed and discarded. The pellet was resuspended in 5 ml stimulation buffer and the cell density determined using the Vi-Cell automated cell counter. The cell suspension was diluted to a 0.2×10^6/ml suspension ready for plating. […] Stimulation buffer consisted of HBSS (+Ca/+Mg) supplemented with 5 mM HEPES, 0.1% BSA stabiliser and 0.5 mM IBMX.
At the start of each assay day the potency of AVP was assessed and an EC80 concentration determined for subsequent compound profiling. Assays were performed by first an addition of 2.5 μl of control or test compound at 4× final concentration in stimulation buffer followed by 2.5 μl of AVP at 4× final concentration in stimulation buffer. After a 1 hour reaction, detection reagents were added by first an addition of 5 μl EU-cAMP tracer, followed by 5 μl ULight-anti-cAMP both diluted as per the manufacturer's instructions. […] For compound profiling, test compounds were dispensed by the Labcyte Echo (10-point curve, 1:3 dilutions) in a target 0.1 μl volume then diluted 750-fold in stimulation buffer containing 3% DMSO prior to addition to the cells. At the end of the incubation period, 2.5 μl of AVP in stimulation buffer was added at the previously determined EC80 concentration.

[2] = biological target: human Oxytocin Receptor (hOTR) (Homo sapiens (Human), UniProt P30559); assay: Oxytocin receptor antagonist assay (oxytocin-evoked calcium, FLIPR, CHEM-1-hOTR cells); type: cell-based; details: read-out: OT IC50
Sequence of human Oxytocin Receptor (hOTR) (P30559 whole entry): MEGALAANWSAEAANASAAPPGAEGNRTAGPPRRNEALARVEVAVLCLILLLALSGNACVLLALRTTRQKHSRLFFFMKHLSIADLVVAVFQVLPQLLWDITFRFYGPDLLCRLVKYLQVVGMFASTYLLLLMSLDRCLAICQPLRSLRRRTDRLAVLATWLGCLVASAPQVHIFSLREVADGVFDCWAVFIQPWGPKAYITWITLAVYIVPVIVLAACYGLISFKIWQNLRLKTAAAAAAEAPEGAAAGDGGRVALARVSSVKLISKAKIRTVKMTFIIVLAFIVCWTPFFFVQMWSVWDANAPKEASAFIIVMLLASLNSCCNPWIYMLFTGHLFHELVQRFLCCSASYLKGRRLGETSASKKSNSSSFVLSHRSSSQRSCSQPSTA
How it was run: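 Antagonist mode in CHEM-1-hOTR cells loaded with Calcium-6 dye; compounds (10-point, 1:3 series) preincubated 15 min at 37 °C, then oxytocin added at daily-determined EC80 in HBSS/20 mM HEPES with 0.1% BSA. Fluorescence (ex 470-495, em 515-575 nm) followed 3 min on FLIPR^TETRA; concentration-dependent reduction of oxytocin response measured.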

[3] = biological target: human Arginine Vasopressin Receptor 1a (AVPR1a) (Homo sapiens (Human), UniProt P37288); assay: Vasopressin V1A receptor antagonist assay (AVP-evoked calcium, FLIPR, CHO-AVPR1a cells); type: cell-based; details: read-out: V1a IC50
Sequence of human Arginine Vasopressin Receptor 1a (AVPR1a) (P37288 whole entry): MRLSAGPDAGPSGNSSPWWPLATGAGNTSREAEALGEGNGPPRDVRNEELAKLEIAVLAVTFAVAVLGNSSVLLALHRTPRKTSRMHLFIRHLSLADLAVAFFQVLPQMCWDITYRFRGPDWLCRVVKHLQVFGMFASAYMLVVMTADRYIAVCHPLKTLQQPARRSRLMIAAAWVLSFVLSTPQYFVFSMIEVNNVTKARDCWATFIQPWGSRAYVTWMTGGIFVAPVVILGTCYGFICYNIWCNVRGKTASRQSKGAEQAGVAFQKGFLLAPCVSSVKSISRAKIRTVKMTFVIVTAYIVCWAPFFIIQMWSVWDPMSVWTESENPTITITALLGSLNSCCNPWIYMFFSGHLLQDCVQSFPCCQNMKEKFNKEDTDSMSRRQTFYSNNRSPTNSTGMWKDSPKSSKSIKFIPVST
How it was run: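 CHO cells expressing human AVPR1a, Calcium-6 dye loaded 60-90 min, preincubated with compound 15 min at 37° C., then challenged with AVP at its daily-determined EC80. FLIPR fluorescence; 10-point 1:3 series from 3 μM, duplicates.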

Sequence of human Arginine Vasopressin Receptor V2 (AVPR2) (P30518 whole entry): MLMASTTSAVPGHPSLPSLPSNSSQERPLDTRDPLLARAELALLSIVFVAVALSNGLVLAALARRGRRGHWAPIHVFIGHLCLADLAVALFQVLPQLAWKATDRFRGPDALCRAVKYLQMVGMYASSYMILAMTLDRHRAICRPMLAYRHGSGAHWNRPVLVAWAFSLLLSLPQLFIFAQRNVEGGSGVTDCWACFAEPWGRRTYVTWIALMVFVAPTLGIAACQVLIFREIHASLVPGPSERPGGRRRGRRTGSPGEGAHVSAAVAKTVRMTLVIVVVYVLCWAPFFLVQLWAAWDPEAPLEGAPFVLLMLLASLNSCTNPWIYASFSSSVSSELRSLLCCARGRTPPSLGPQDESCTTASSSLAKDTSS

| SMILES | Papp A→B at 2 h (MDR1 (P-gp)) [×10⁻⁶ cm/s] | IC50 [1] [nM] | IC50 [2] [nM] | IC50 [3] [nM] |
| --- | --- | --- | --- | --- |
| CC1(N2Cc3cc(Cl)ccc3-n3c(nnc3C3CC4(C3)CN(c3ccc(F)cn3)C4)C2)CC1 [Compound No. 255, 8-chloro-1-(2-(5-fluoropyridin-2-yl)-2-azaspiro[3.3]heptan-6-yl)-5-(1-methylcyclopropyl)-5,6-dihydro-4H-benzo[f][1,2,4]triazolo[4,3-a][1,4]diazepine] | > 20 | 100 to 500 | > 1000 | < 100 |
| Fc1ccc(N2CC3(CC(c4nnc5n4-c4ccc(Cl)cc4CN(C4CC4)C5)C3)C2)nc1 [compound 223] | > 20 | < 100 | > 1000 | < 100 |
